Measured values as given in US20260008768A1, “UREA DERIVATIVES FOR INHIBITING NLRP3 AND USES THEREOF” (VENTUS THERAPEUTICS U.S., INC., priority 2023, published 2026).
pIC50: −log10 of the molar value.

Molecular target: human NLRP3 (Homo sapiens, UniProt Q96P20)
Assay: Scintillation Proximity (SPA) NLRP3 Assay, displacement of 3H-MCC950
Assay type: binding
Conditions: Table B, activity class; displacement of 3H-MCC950 from human NLRP3
Method: Improved NLRP3 binding correlates with increased affinity for NLRP3 protein and, by extension, increased ability to interfere with its function.
SPA experiments were conducted in a total volume of 20 μL assay buffer containing 20 mM HEPES pH 7.5, 150 mM NaCl, 5 mM MgCl2, 0.01% (v/v) Tween-20, 0.01% (w/v) bovine serum albumin (BSA) and 100 μM of adenosine diphosphate (ADP). A human NLRP3 protein (350 nM) (see, e.g., Sharif et al., Nature (2019) 570:338-343; Hochheiser et al., Nature (2022) 604:184-189; Adreeva et al., Cell (2021) 184:6299-6312; Wang et al., J Exp. Med. (2021) 219:e20211147) was incubated with various concentration of compounds in 5% dimethyl sulfoxide (DMSO) final for 15 minutes at room temperature in a white half-area 96 well OptiPlate (PerkinElmer #6002290) before adding 125 nM final of 3H-MCC950. After the addition of radiolabeled MCC950, the plate was incubated for 60 minutes at room temperature before adding 0.25 mg/ml of copper-coated polyvinyltoluene SPA beads (PerkinElmer #RPNQ0095). The plate was then transferred to a microplate counter (PerkinElmer 2450 Microbeta) to collect binding data. Binding data was analyzed 6 hrs post-PVT bead addition to allow sufficient time to reach equilibrium. Specific binding was calculated from averaged duplicates by subtracting signal from wells without NLRP3 protein.
SPA NLRP3 IC50 assay results are provided in Table B. “A” activity=<1 uM; “B” activity=1-10 uM; “C” activity=>10-50 uM; “D” activity=>50 uM-100 uM; and “E” activity=>100 uM.

human NLRP3, sequence (Q96P20 whole entry): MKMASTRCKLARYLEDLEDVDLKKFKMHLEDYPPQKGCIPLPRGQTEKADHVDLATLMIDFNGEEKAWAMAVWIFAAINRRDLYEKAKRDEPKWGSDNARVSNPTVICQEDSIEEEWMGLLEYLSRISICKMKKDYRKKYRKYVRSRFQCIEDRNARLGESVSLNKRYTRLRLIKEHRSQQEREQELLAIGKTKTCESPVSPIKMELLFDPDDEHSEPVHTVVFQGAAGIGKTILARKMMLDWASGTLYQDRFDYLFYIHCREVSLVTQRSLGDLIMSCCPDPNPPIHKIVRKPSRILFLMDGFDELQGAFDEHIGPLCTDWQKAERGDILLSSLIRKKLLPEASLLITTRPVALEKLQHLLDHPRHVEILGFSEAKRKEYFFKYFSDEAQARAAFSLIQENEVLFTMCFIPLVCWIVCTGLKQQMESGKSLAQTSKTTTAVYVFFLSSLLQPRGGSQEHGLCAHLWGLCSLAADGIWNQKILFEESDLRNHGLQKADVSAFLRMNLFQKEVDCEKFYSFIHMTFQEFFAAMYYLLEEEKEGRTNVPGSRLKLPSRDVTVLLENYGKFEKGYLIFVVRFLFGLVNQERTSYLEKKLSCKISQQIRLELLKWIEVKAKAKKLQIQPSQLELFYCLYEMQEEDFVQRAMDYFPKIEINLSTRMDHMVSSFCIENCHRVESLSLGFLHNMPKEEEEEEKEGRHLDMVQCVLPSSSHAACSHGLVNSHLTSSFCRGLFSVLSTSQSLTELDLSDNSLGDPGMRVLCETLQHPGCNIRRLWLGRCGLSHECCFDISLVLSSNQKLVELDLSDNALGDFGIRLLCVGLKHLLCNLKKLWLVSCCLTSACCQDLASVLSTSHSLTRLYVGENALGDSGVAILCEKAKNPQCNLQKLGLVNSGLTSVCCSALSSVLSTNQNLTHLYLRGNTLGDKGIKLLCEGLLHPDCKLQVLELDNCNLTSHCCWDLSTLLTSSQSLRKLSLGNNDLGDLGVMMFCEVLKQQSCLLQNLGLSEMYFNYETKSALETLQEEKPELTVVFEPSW

First: C[C@@H]1C[C@H](NC(=O)N(C)c2ccc(OC(F)(F)F)cc2)[C@H]2CC[C@@H]1N2c1nnn[nH]1 (single isomer, unassigned) [45B*]
Second: C[C@H]1C[C@@H](NC(=O)N(C)c2ccc(OC(F)(F)F)cc2)[C@@H]2CC[C@H]1N2c1nnn[nH]1 (single isomer, unassigned) [45C*]
The pIC50 of the first is higher: 4.30 to 5.00 for the first, 4.00 to 4.30 for the second. The first is the more potent here.

First: C[C@H]1C[C@H](NC(=O)N(C)c2ccc(OC(F)(F)F)cc2)[C@@H]2CC[C@H]1N2c1nnn[nH]1 (single isomer, unassigned) [45D*]
Second: C[C@@H]1C[C@H](NC(=O)N(C)c2ccc(OC(F)(F)F)c(F)c2)[C@H]2CC[C@@H]1N2c1nnn[nH]1 (single isomer, unassigned) [51B*]
The pIC50 of the first is higher: 5.00 to 6.00 for the first, 4.00 to 4.30 for the second.

Compared with `C[C@@H]1C[C@H](NC(=O)N(C)c2ccc(C3CC3)cc2)[C@H]2CC[C@@H]1N2c1nnn[nH]1` (single isomer, unassigned) [46B*], `C[C@H]1C[C@@H](NC(=O)N(C)c2ccc(C3CC3)cc2)[C@@H]2CC[C@H]1N2c1nnn[nH]1` (single isomer, unassigned) [46C*] is higher in pIC50: 4.00 to 4.30 for the first, 4.30 to 5.00 for the second.

First: C[C@H]1C[C@H](NC(=O)N(C)c2ccc(C3CC3)cc2)[C@@H]2CC[C@H]1N2c1nnn[nH]1 (single isomer, unassigned) [46D*]
Second: C[C@@H]1C[C@H](NC(=O)N(C)c2ccc(C3CC3)c(F)c2)[C@H]2CC[C@@H]1N2c1nnn[nH]1 (single isomer, unassigned) [54B*]
The pIC50 of the first is higher: 4.30 to 5.00 for the first, under 4.00 for the second. The first is the more potent here.

First: C[C@@H]1C[C@H](NC(=O)N(C)c2ccc(C(F)(F)F)c(F)c2F)[C@H]2CC[C@@H]1N2c1nnn[nH]1 (single isomer, unassigned) [47B*]
Second: C[C@H]1C[C@@H](NC(=O)N(C)c2ccc(C(F)(F)F)c(F)c2F)[C@@H]2CC[C@H]1N2c1nnn[nH]1 (single isomer, unassigned) [47C*]
The pIC50 of the first is higher: 4.00 to 4.30 for the first, under 4.00 for the second.

First: C[C@H]1C[C@H](NC(=O)N(C)c2ccc(C(F)(F)F)c(F)c2F)[C@@H]2CC[C@H]1N2c1nnn[nH]1 (single isomer, unassigned) [47D*]
Second: C[C@@H]1C[C@H](NC(=O)N(C)c2ccc(OC(F)(F)F)c(F)c2F)[C@H]2CC[C@@H]1N2c1nnn[nH]1 (single isomer, unassigned) [59B*]
The pIC50 of the first is higher: 4.30 to 5.00 for the first, 4.00 to 4.30 for the second. The first is the more potent here.

Compared with `C[C@@H]1C[C@H](NC(=O)N(C)c2ccc(C(F)(F)F)cc2F)[C@H]2CC[C@@H]1N2c1nnn[nH]1` (single isomer, unassigned) [48B*], `C[C@H]1C[C@@H](NC(=O)N(C)c2ccc(C(F)(F)F)cc2F)[C@@H]2CC[C@H]1N2c1nnn[nH]1` (single isomer, unassigned) [48C*] is higher in pIC50: under 4.00 for the first, 4.00 to 4.30 for the second.

First: C[C@H]1C[C@H](NC(=O)N(C)c2ccc(C(F)(F)F)cc2F)[C@@H]2CC[C@H]1N2c1nnn[nH]1 (single isomer, unassigned) [48D*]
Second: C[C@@H]1C[C@H](NC(=O)N(C)c2ccc(OC(F)(F)F)cc2F)[C@H]2CC[C@@H]1N2c1nnn[nH]1 (single isomer, unassigned) [56B*]
The pIC50 of the first is higher: 4.30 to 5.00 for the first, under 4.00 for the second. The first is the more potent here.

First: C[C@@H]1C[C@H](NC(=O)N(C)c2ccc(C(F)(F)F)c(F)c2)[C@H]2CC[C@@H]1N2c1nnn[nH]1 (single isomer, unassigned) [49B*]
Second: C[C@H]1C[C@@H](NC(=O)N(C)c2ccc(C(F)(F)F)c(F)c2)[C@@H]2CC[C@H]1N2c1nnn[nH]1 (single isomer, unassigned) [49C*]
The pIC50 of the first is lower: under 4.00 for the first, 4.00 to 4.30 for the second.

First: C[C@H]1C[C@H](NC(=O)N(C)c2ccc(C(F)(F)F)c(F)c2)[C@@H]2CC[C@H]1N2c1nnn[nH]1 (single isomer, unassigned) [49D*]
Second: C[C@H]1C[C@@H](NC(=O)N(C)c2ccc(OC(F)(F)F)c(F)c2)[C@@H]2CC[C@H]1N2c1nnn[nH]1 (single isomer, unassigned) [51C*]
The pIC50 of the first is higher: 4.00 to 4.30 for the first, under 4.00 for the second.

First: C[C@@H]1C[C@@H](NC(=O)N(C)c2ccc(Cl)c(F)c2)[C@H]2CC[C@@H]1N2c1nnn[nH]1 (single isomer, unassigned) [50A*]
Second: C[C@@H]1C[C@H](NC(=O)N(C)c2ccc(Cl)c(F)c2)[C@H]2CC[C@@H]1N2c1nnn[nH]1 (single isomer, unassigned) [50B*]
The pIC50 of the first is higher: 5.00 to 6.00 for the first, under 4.00 for the second.

First: C[C@H]1C[C@@H](NC(=O)N(C)c2ccc(Cl)c(F)c2)[C@@H]2CC[C@H]1N2c1nnn[nH]1 (single isomer, unassigned) [50C*]
Second: C[C@H]1C[C@H](NC(=O)N(C)c2ccc(Cl)c(F)c2)[C@@H]2CC[C@H]1N2c1nnn[nH]1 (single isomer, unassigned) [50D*]
The pIC50 of the first is lower: under 4.00 for the first, 4.30 to 5.00 for the second. The second is the more potent here.

First: C[C@H]1C[C@H](NC(=O)N(C)c2ccc(OC(F)(F)F)c(F)c2)[C@@H]2CC[C@H]1N2c1nnn[nH]1 (single isomer, unassigned) [51D*]
Second: C[C@@H]1C[C@H](NC(=O)N(C)c2ccc(OC(F)F)c(F)c2)[C@H]2CC[C@@H]1N2c1nnn[nH]1 (single isomer, unassigned) [52B*]
The pIC50 of the first is higher: 4.30 to 5.00 for the first, under 4.00 for the second.

First: C[C@H]1C[C@@H](NC(=O)N(C)c2ccc(OC(F)F)c(F)c2)[C@@H]2CC[C@H]1N2c1nnn[nH]1 (single isomer, unassigned) [52C*]
Second: C[C@H]1C[C@H](NC(=O)N(C)c2ccc(OC(F)F)c(F)c2)[C@@H]2CC[C@H]1N2c1nnn[nH]1 (single isomer, unassigned) [52D*]
The pIC50 of the first is lower: under 4.00 for the first, 4.30 to 5.00 for the second.

First: C[C@@H]1C[C@@H](NC(=O)N(C)c2ccc(C(F)F)c(F)c2)[C@H]2CC[C@@H]1N2c1nnn[nH]1 (single isomer, unassigned) [53A*]
Second: C[C@@H]1C[C@H](NC(=O)N(C)c2ccc(C(F)F)c(F)c2)[C@H]2CC[C@@H]1N2c1nnn[nH]1 (single isomer, unassigned) [53B*]
The pIC50 of the first is higher: 5.00 to 6.00 for the first, under 4.00 for the second. The first is the more potent here.

`C[C@H]1C[C@@H](NC(=O)N(C)c2ccc(C(F)F)c(F)c2)[C@@H]2CC[C@H]1N2c1nnn[nH]1` (single isomer, unassigned) [53C*] and `C[C@H]1C[C@H](NC(=O)N(C)c2ccc(C(F)F)c(F)c2)[C@@H]2CC[C@H]1N2c1nnn[nH]1` (single isomer, unassigned) [53D*] cannot be ordered by pIC50: under 4.00 for the first, under 4.00 for the second.

Compared with `C[C@H]1C[C@@H](NC(=O)N(C)c2ccc(C3CC3)c(F)c2)[C@@H]2CC[C@H]1N2c1nnn[nH]1` (single isomer, unassigned) [54C*], `C[C@H]1C[C@H](NC(=O)N(C)c2ccc(C3CC3)c(F)c2)[C@@H]2CC[C@H]1N2c1nnn[nH]1` (single isomer, unassigned) [54D*] is higher in pIC50: under 4.00 for the first, 4.30 to 5.00 for the second. The second is the more potent here.

First: C[C@@H]1C[C@H](NC(=O)N(C)c2ccc(C(F)F)cc2F)[C@H]2CC[C@@H]1N2c1nnn[nH]1 (single isomer, unassigned) [55B*]
Second: C[C@H]1C[C@@H](NC(=O)N(C)c2ccc(C(F)F)cc2F)[C@@H]2CC[C@H]1N2c1nnn[nH]1 (single isomer, unassigned) [55C*]
The pIC50 of the first is lower: under 4.00 for the first, 4.00 to 4.30 for the second. The second is the more potent here.

First: C[C@H]1C[C@H](NC(=O)N(C)c2ccc(C(F)F)cc2F)[C@@H]2CC[C@H]1N2c1nnn[nH]1 (single isomer, unassigned) [55D*]
Second: C[C@@H]1C[C@H](NC(=O)N(C)c2ccc(OC(F)F)cc2F)[C@H]2CC[C@@H]1N2c1nnn[nH]1 (single isomer, unassigned) [57B*]
The pIC50 of the first is higher: 4.30 to 5.00 for the first, under 4.00 for the second.

First: C[C@H]1C[C@@H](NC(=O)N(C)c2ccc(OC(F)(F)F)cc2F)[C@@H]2CC[C@H]1N2c1nnn[nH]1 (single isomer, unassigned) [56C*]
Second: C[C@H]1C[C@H](NC(=O)N(C)c2ccc(OC(F)(F)F)cc2F)[C@@H]2CC[C@H]1N2c1nnn[nH]1 (single isomer, unassigned) [56D*]
The pIC50 of the first is lower: 4.00 to 4.30 for the first, 5.00 to 6.00 for the second.

First: C[C@H]1C[C@@H](NC(=O)N(C)c2ccc(OC(F)F)cc2F)[C@@H]2CC[C@H]1N2c1nnn[nH]1 (single isomer, unassigned) [57C*]
Second: C[C@H]1C[C@H](NC(=O)N(C)c2ccc(OC(F)F)cc2F)[C@@H]2CC[C@H]1N2c1nnn[nH]1 (single isomer, unassigned) [57D*]
The pIC50 of the first is lower: 4.00 to 4.30 for the first, 5.00 to 6.00 for the second. The second is the more potent here.

First: C[C@@H]1C[C@H](NC(=O)N(C)c2ccc(OC(F)F)c(F)c2F)[C@H]2CC[C@@H]1N2c1nnn[nH]1 (single isomer, unassigned) [58B*]
Second: C[C@H]1C[C@@H](NC(=O)N(C)c2ccc(OC(F)F)c(F)c2F)[C@@H]2CC[C@H]1N2c1nnn[nH]1 (single isomer, unassigned) [58C*]
The pIC50 of the first is lower: under 4.00 for the first, 4.00 to 4.30 for the second. The second is the more potent here.

First: C[C@H]1C[C@H](NC(=O)N(C)c2ccc(OC(F)F)c(F)c2F)[C@@H]2CC[C@H]1N2c1nnn[nH]1 (single isomer, unassigned) [58D*]
Second: C[C@H]1C[C@@H](NC(=O)N(C)c2ccc(OC(F)(F)F)c(F)c2F)[C@@H]2CC[C@H]1N2c1nnn[nH]1 (single isomer, unassigned) [59C*]
The pIC50 of the first is higher: 4.30 to 5.00 for the first, under 4.00 for the second. The first is the more potent here.

Compared with `C[C@H]1C[C@H](NC(=O)N(C)c2ccc(OC(F)(F)F)c(F)c2F)[C@@H]2CC[C@H]1N2c1nnn[nH]1` (single isomer, unassigned) [59D*], `C[C@@H]1C[C@H](NC(=O)N(C)c2c(F)cc(C3CC3)cc2F)[C@H]2CC[C@@H]1N2c1nnn[nH]1` (single isomer, unassigned) [60B*] is lower in pIC50: 4.30 to 5.00 for the first, under 4.00 for the second. The first is the more potent here.

`C[C@H]1C[C@@H](NC(=O)N(C)c2c(F)cc(C3CC3)cc2F)[C@@H]2CC[C@H]1N2c1nnn[nH]1` (single isomer, unassigned) [60C*] gave a pIC50 of 4.00 to 4.30.
